In patent US11046696B2, “Fused pyrimidine compound or salt thereof” (TAIHO PHARMACEUTICAL CO., LTD., priority 2016, dated 2021):

Assay: Evaluation of stability in liver microsome
Details: mouse liver microsome, 1 μM, 37° C. for 30 minutes
Procedure: Solutions of the test compounds in DMSO/acetonitrile (the final concentration of each test compound was 1 μM, the final concentration of DMSO was 0.01%, and the final concentration of acetonitrile was 1%) were individually added to a liver microsome mixture solution (mouse liver microsome with a final concentration of 0.25 mg/mL, a potassium phosphate buffer with a final concentration of 100 mM, and magnesium chloride with a final concentration of 3 mM), and each mixture was pre-incubated at 37° C. for 5 minutes. […] After incubation at 37° C. for 30 minutes, a double amount of ethanol was added thereto to terminate the reaction, thereby obtaining post-reaction samples. A double amount of ethanol was added to each of the remaining mixture solutions, and a NADPH-generating system was further added thereto, thereby obtaining pre-reaction samples. The pre-reaction samples and post-reaction samples were centrifuged at 2000×g, and their supernatant was filtered through a glass filter. Each filtrate was then introduced into LC-MS/MS, and MS/MS peaks of the test compounds were detected. From the ratio of the post-reaction MS/MS peak to the pre-reaction MS/MS peak of the test compounds, the percentage of the remaining test compounds (remaining %) was calculated.

| Structure (SMILES) | Remaining (%) |
| --- | --- |
| COCc1ccc(NC(=O)c2c(-c3ccc(NC(C)=O)nc3)n(C3(C)CC3)c3ncnc(N)c23)cc1 [Example 147, 6-(6-acetamidopyridin-3-yl)-4-amino-N-(4-(methoxymethyl)phenyl)-7-(1-methylcyclopropyl)-7H-pyrrolo[2,3-d]pyrimidine-5-carboxamide] | 68 |
| CCOc1c(C(=O)Nc2ccc(-c3ccco3)cc2)c2c(N)ncnc2n1C1(C)CC1 [Example 116, 4-amino-6-ethoxy-N-(4-(furan-2-yl)phenyl)-7-(1-methylcyclopropyl)-7H-pyrrolo[2,3-d]pyrimidine-5-carboxamide] | 55 |
| CCn1cc(C#Cc2c(C(=O)Nc3ccc(COC)cc3)c3c(N)ncnc3n2C2(C)CC2)cn1 [Example 118, 4-amino-6-((1-ethyl-1H-pyrazol-4-yl)ethynyl)-N-(4-(methoxymethyl)phenyl)-7-(1-methylcyclopropyl)-7H-pyrrolo[2,3-d]pyrimidine-5-carboxamide] | 73 |
| COCCN(C)CC#Cc1c(C(=O)Nc2ccc(COC)cc2)c2c(N)ncnc2n1C1(C)CC1 [Example 197, 4-amino-6-(3-((2-methoxyethyl)(methyl)amino)prop-1-yn-1-yl)-N-(4-(methoxymethyl)phenyl)-7-(1-methylcyclopropyl)-7H-pyrrolo[2,3-d]pyrimidine-5-carboxamide] | 52 |
| COCc1ccc(NC(=O)c2c(C#Cc3ccn[nH]3)n(C3(C)CC3)c3ncnc(N)c23)cc1 [Example 129, 6-((1H-pyrazol-5-yl)ethynyl)-4-amino-N-(4-(methoxymethyl)phenyl)-7-(1-methylcyclopropyl)-7H-pyrrolo[2,3-d]pyrimidine-5-carboxamide] | 54 |
| COCc1ccc(NC(=O)c2c(-c3ccccc3)n(C3(C)CC3)c3ncnc(N)c23)cc1 [Example 154, 4-amino-N-(4-(methoxymethyl)phenyl)-7-(1-methylcyclopropyl)-6-phenyl-7H-pyrrolo[2,3-d]pyrimidine-5-carboxamide] | 50 |
| COCc1ccc(NC(=O)c2c(C#Cc3cnc4cccnn34)n(C3(C)CC3)c3ncnc(N)c23)cc1 [Example 91, 4-amino-6-(imidazo[1,2-b]pyridazin-3-ylethynyl)-N-[4-(methoxymethyl)phenyl]-7-(1-methylcyclopropyl)-7H-pyrrolo[2,3-d]pyrimidine-5-carboxamide] | 65 |
| COCc1ccc(NC(=O)c2c(C#Cc3ccc[nH]3)n(C3(C)CC3)c3ncnc(N)c23)cc1 [Example 161, 6-((1H-pyrrol-2-yl)ethynyl)-4-amino-N-(4-(methoxymethyl)phenyl)-7-(1-methylcyclopropyl)-7H-pyrrolo[2,3-d]pyrimidine-5-carboxamide] | 68 |
| COCc1ccc(NC(=O)c2c(C#Cc3cncs3)n(C3(C)CC3)c3ncnc(N)c23)cc1 [Example 193, 4-amino-N-[4-(methoxymethyl)phenyl]-7-(1-methylcyclopropyl)-6-(thiazol-5-ylethynyl)-7H-pyrrolo[2,3-d]pyrimidine-5-carboxamide] | 51 |
| CCOc1c(C(=O)Nc2ccc(COC)cc2)c2c(N)ncnc2n1C1(C)CC1 [Example 127, 4-amino-6-ethoxy-N-(4-(methoxymethyl)phenyl)-7-(1-methylcyclopropyl)-7H-pyrrolo[2,3-d]pyrimidine-5-carboxamide] | 70 |
| COCc1ccc(NC(=O)c2c(C#Cc3ccc(OC)cc3)n(C3(C)CC3)c3ncnc(N)c23)cc1 [Example 165, 4-amino-N-(4-(methoxymethyl)phenyl)-6-((4-methoxypheny)ethynyl)-7-(1-methylcyclopropyl)-7H-pyrrolo[2,3-d]pyrimidine-5-carboxamide] | 90 |
| COCc1ccc(NC(=O)c2c(C#Cc3c[nH]c4ccccc34)n(C3(C)CC3)c3ncnc(N)c23)cc1 [Example 121, 6-((1H-indol-3-yl)ethynyl)-4-amino-N-(4-(methoxymethyl)phenyl)-7-(1-methylcyclopropyl)-7H-pyrrolo[2,3-d]pyrimidine-5-carboxamide] | 74 |
| COCc1ccc(NC(=O)c2c(OCC(C)(C)OC)n(C3(C)CC3)c3ncnc(N)c23)cc1 [Example 137, 4-amino-6-(2-methoxy-2-methylpropoxy)-N-(4-(methoxymethyl)phenyl)-7-(1-methylcyclopropyl)-7H-pyrrolo[2,3-d]pyrimidine-5-carboxamide] | 53 |
| COCc1ccc(NC(=O)c2c(C#CCN3CCCC3)n(C3(C)CC3)c3ncnc(N)c23)cc1 [Example 88, 4-amino-N-[4-(methoxymethyl)phenyl]-7-(1-methylcyclopropyl)-6-(3-(pyrrolidin-1-yl)prop-1-yn-1-yl)-7H-pyrrolo[2,3-d]pyrimidine-5-carboxamide] | 59 |
| COCc1ccc(NC(=O)c2c(C)n(C(C)(C)C)c3ncnc(N)c23)cc1 [Example 60, 4-amino-7-(tert-butyl)-N-(4-(methoxymethyl)phenyl)-6-methyl-7H-pyrrolo[2,3-d]pyrimidine-5-carboxamide] | 81 |
| COCc1ccc(NC(=O)c2cn(C3(CF)CC3)c3ncnc(N)c23)cc1 [Example 45, 4-amino-7-(1-(fluoromethyl)cyclopropyl)-N-(4-(methoxymethyl)phenyl)-7H-pyrrolo[2,3-d]pyrimidine-5-carboxamide] | 66 |
| COCc1ccc(NC(=O)c2cn(C3(C)CC3)c3ncnc(N)c23)cc1F [Example 48, 4-amino-N-(3-fluoro-4-(methoxymethyl)phenyl)-7-(1-methylcyclopropyl)-7H-pyrrolo[2,3-d]pyrimidine-5-carboxamide] | 58 |
| COCc1ccc(NC(=O)c2c(OCC3CCOCC3)n(C3(C)CC3)c3ncnc(N)c23)cc1 [Example 141, 4-amino-N-(4-(methoxymethyl)phenyl)-7-(1-methylcyclopropyl)-6-((tetrahydro-2H-pyran-4-yl)methoxy)-7H-pyrrolo[2,3-d]pyrimidine-5-carboxamide] | 68 |
| COCc1ccc(NC(=O)c2c(C(C)O)n(C3(C)CC3)c3ncnc(N)c23)cc1 (centres unmarked) [Example 204, 4-amino-6-(1-hydroxyethyl)-N-(4-(methoxymethyl)phenyl)-7-(1-methylcyclopropyl)-7H-pyrrolo[2,3-d]pyrimidine-5-carboxamide] | 83 |
| COCc1ccc(NC(=O)c2c(OC[C@H]3CCCO3)n(C3(C)CC3)c3ncnc(N)c23)cc1 [Example 89, (R)-4-amino-N-[4-(methoxymethyl)phenyl]-7-(1-methylcyclopropyl)-6-((tetrahydrofuran-2-yl)methoxy)-7H-pyrrolo[2,3-d]pyrimidine-5-carboxamide] | 69 |
| COCc1ccc(NC(=O)c2c(OC[C@@H]3CCCO3)n(C3(C)CC3)c3ncnc(N)c23)cc1 [Example 97, (S)-4-amino-N-(4-(methoxymethyl)phenyl)-7-(1-methylcyclopropyl)-6-((tetrahydrofuran-2-yl)methoxy)-7H-pyrrolo[2,3-d]pyrimidine-5-carboxamide] | 70 |
| COCc1ccc(NC(=O)c2cn(C(C)(C)C(F)F)c3ncnc(N)c23)cc1 [Example 50, 4-amino-7-(1,1-difluoro-2-methylpropan-2-yl)-N-(4-(methoxymethyl)phenyl)-7H-pyrrolo[2,3-d]pyrimidine-5-carboxamide] | 53 |
| COCc1ccc(NC(=O)c2c(C#CCN3CCN(C)CC3)n(C3(C)CC3)c3ncnc(N)c23)cc1 [Example 132, 4-amino-N-(4-(methoxymethyl)phenyl)-7-(1-methylcyclopropyl)-6-(3-(4-methylpiperazin-1-yl)prop-1-yn-1-yl)-7H-pyrrolo[2,3-d]pyrimidine-5-carboxamide] | 77 |
| COCc1ccc(NC(=O)c2c(C#Cc3csc(C)n3)n(C3(C)CC3)c3ncnc(N)c23)cc1 [Example 126, 4-amino-N-(4-(methoxymethyl)phenyl)-7-(1-methylcyclopropyl)-6-((2-methylthiazol-4-yl)ethynyl)-7H-pyrrolo[2,3-d]pyrimidine-5-carboxamide] | 69 |
| COCc1ccc(NC(=O)c2c(C#Cc3c(C)noc3C)n(C3(C)CC3)c3ncnc(N)c23)cc1 [Example 184, 4-amino-6-((3,5-dimethylisoxazol-4-yl)ethynyl)-N-(4-(methoxymethyl)phenyl)-7-(1-methylcyclopropyl)-7H-pyrrolo[2,3-d]pyrimidine-5-carboxamide] | 58 |
| COCc1ccc(NC(=O)c2c(C#Cc3ccccc3)n(C3(C)CC3)c3ncnc(N)c23)cc1 [Example 162, 4-amino-N-(4-(methoxymethyl)phenyl)-7-(1-methylcyclopropyl)-6-(phenylethynyl)-7H-pyrrolo[2,3-d]pyrimidine-5-carboxamide] | 76 |
| COCc1ccc(NC(=O)c2c(C#CCC3CCCCC3)n(C3(C)CC3)c3ncnc(N)c23)cc1 [Example 199, 4-amino-6-(3-cyclohexylprop-1-yn-1-yl)-N-(4-(methoxymethyl)phenyl)-7-(1-methylcyclopropyl)-7H-pyrrolo[2,3-d]pyrimidine-5-carboxamide] | 80 |
| COCc1ccc(NC(=O)c2cn(C(C)(C)C)c3ncnc(N)c23)c(OC)c1 [Example 33, 4-amino-7-(tert-butyl)-N-(2-methoxy-4-(methoxymethyl)phenyl)-7H-pyrrolo[2,3-d]pyrimidine-5-carboxamide] | 57 |
| COCc1ccc(NC(=O)c2c(C#Cc3ccc(Cl)nc3)n(C3(C)CC3)c3ncnc(N)c23)cc1 [Example 120, 4-amino-6-((6-chloropyridin-3-yl)ethynyl)-N-(4-(methoxymethyl)phenyl)-7-(1-methylcyclopropyl)-7H-pyrrolo[2,3-d]pyrimidine-5-carboxamide] | 72 |
